Assay results: patent US20110171328A1, “PHARMACEUTICAL COMPOSITION FOR TREATING DIABETES” (priority 2008, published 2011)
Each block holds one molecule with its values, some of them ahead of it.

How the values were obtained:
[1] = test system: NOD mice with spontaneous hyperglycemia; assay: Blood glucose of mice with spontaneous hyperglycemia after 14 days intragastric administration; assay type: in vivo; conditions: for Blood glucose after administration: 1 h after administration at day 14, fasted 6 h, X ± SD; for Blood glucose before administration: n=10, X ± SD
Method: (§1) Impacts of the composition in different doses on blood glucose and serum insulin of mice with spontaneous hyperglycemia
(§2) 1, Medicines: 1-deoxynojirimycin and fagomine, prepared by the inventor. The two are prepared into the required concentrations with distilled water before the test (the sum of the concentrations of the 1-deoxynojirimycin and the fagomine in the composition is the same as the concentration of the fagomine or the 1-deoxynojirimycin which is prepared alone). Glibenclamide is obtained from Hunan Dongting Pharmaceutical Co., Ltd. 2. Animals: NOD mice with the weight of 25-35 g, provided by Experimental Animal Center, Peking University Health Science Center. Determine the blood glucose before the test and select the animals with the blood glucose value of above 11.1 mmol/L for carrying out the test. 3. Determination instrument: Yicheng blood glucose tester, developed by Beijing Yicheng Bioelectronic Technology Co., Ltd. 4. Main reagents: ^125I-insulin radioimmunoassay kit, produced by Department of Isotopes, China Institute of Atomic Energy. 5. Test method and results (1) Impacts on the blood glucose of the mice: determine the blood glucose of the NOD mice after fasting for 6 h, select 70 animals with blood glucose above 11.1 mmol/L, randomly divide into seven groups, respectively carry out intragastric administration and give the following medicines: i) control group (distilled water); ii) glibenclamide group (50 mg/kg); and iii)-v) composition in different mixing ratios (20 mg/kg, with different medicine proportions and constant total amount). Carry out the continuous administration for 14 days, fast for 6 h before the administration at the 14th day, draw blood from the animals 1 h after the administration, use the Yicheng blood glucose tester to determine the blood glucose value of the animals, and determine the serum insulin by radioimmunoassay.

[2] = test system: α-D-glucosidase; assay: Determination of α-D-glucosidase inhibitory activity (PNPG colorimetry at 400 nm); assay type: biochemical; conditions: 30 μL inhibitor sample solution in total, from 5 μmol/mL stock solutions, total amount of DNJ and Fag constant, 37° C.
Excerpt: Determination of α-D-glucosidase inhibitory activity of the combination compatibility of 1-deoxynojirimycin and fagomine. 1. Medicines: 1-deoxynojirimycin and fagomine, homemade. 2. Reagents: potassium dihydrogen phosphate, sodium hydroxide, sodium bicarbonate, para-nitrophenyl glucoside (PNPG), reduced glutathione and α-D-glucosidase sucrose. 3. Instrument: TU-1901 UV-Vis spectrophotometer. 4. Test method and results (1) Preparation of potassium phosphate buffer solution: dissolve 0.68120 g of potassium dihydrogen phosphate in 25 mL of distilled water, obtain stock solution 1, dissolve 0.2 g of NaOH in 25 mL of the distilled water, obtain stock solution 2, suck the stock solution 1 (25 mL), add into the stock solution 2 (11.8 mL), shake up, dilute to 100 mL and obtain the potassium phosphate buffer solution. (2) Na2CO[…] solution: […] Take 250 μL of the 1-deoxynojirimycin stock solution, dilute to 1 mL with the distilled water, and obtain the stock solution 1. Take 250 μL of the fagomine stock solution, dilute to 1 mL with the distilled water, and obtain the stock solution 2. […] (9) Determination reaction of α-D-glucosidase inhibitory activity Add the reagents according to the sequence in Table 1 for reaction, determine the absorbance value and calculate the α-glycosidase inhibition ratio of a sample according to the following formula: [formula] […]

[3] = test system: NOD mice with spontaneous hyperglycemia; assay: Serum insulin of mice with spontaneous hyperglycemia (radioimmunoassay); assay type: in vivo; conditions: for Serum insulin: 1 h after administration at day 14, X ± SD; for Effect on serum insulin of the NOD mice, result in words: 20 mg/kg, 14 days
Method: as §1, §2

[4] = test system: SD rats with streptozotocin-induced hyperglycemia; assay: Blood glucose of rats with streptozotocin-induced hyperglycemia after intragastric sucrose; assay type: in vivo; conditions: STZ rats, 60 mg/kg intragastric for 14 days
Method: Medicines: 1-deoxynojirimycin-fagomine mixture (2:1), homemade. The mixture is prepared to the required concentration with distilled water before the test. Glucobay is obtained from Bayer Healthcare Co., Ltd. Catechin, ginkgo biloba extract and flavonoids from mulberry leaves were obtained from Hunan Geneham Biomedical Technology Ltd. 2. Animals: SD rats with the weight of 180-220 g, half male and half female, provided by Hunan Institute of Pharmaceutical Industry Research. Modeling method: carry out small dose intravenous injection of 25 mg/kg of streptozotocin on the rats after fasting for 24 h, once a week, simultaneously heat feed for feeding, induce H type diabetes, determine the blood glucose 1 week after the second injection, and select the animals with the fasting blood glucose of above 7.8 mmol/L for carrying out the test. […] Reagents: streptozotocin, product of Sigma Company, USA. Use citric acid buffer solution (PH=4.0) before modeling, and prepare at low temperature; sucrose, analytically pure. […] PLUS blood glucose monitoring meter. […]

[5] = 20 mg/kg intragastric for 14 days
[6] = 50 mg/kg intragastric for 14 days

Molecule: OCC1NCC(O)C(O)C1O (stereo not shown) [DNJ]
Blood glucose after administration [1, 5]: 10.60 ± 2.13 mmol/L
Blood glucose before administration ([1]; 20 mg/kg intragastric): 14.20 ± 1.33 mmol/L
Effect on blood glucose of the NOD mice, result in words ([1]; 20 mg/kg, 14 days): significantly reduce the blood glucose
α-glycosidase inhibition ratio % [2]: 44%
Serum insulin [3, 5]: 16.14 ± 2.63 MIU/L
Effect on serum insulin of the NOD mice, result in words [3]: little effect

α-glycosidase inhibition ratio % [2]: 21%
Molecule: OC[C@H]1NCC[C@@H](O)[C@@H]1O [Fagomine, fagomine]
Blood glucose after administration [1, 5]: 12.24 ± 1.62 mmol/L
Blood glucose before administration ([1]; 20 mg/kg intragastric): 13.49 ± 1.65 mmol/L
Serum insulin [3, 5]: 21.78 ± 3.34 MIU/L
Effect on serum insulin of the NOD mice, result in words [3]: significantly improve the serum insulin level

Molecule: COc1ccc(Cl)cc1C(=O)NCCc1ccc(S(=O)(=O)NC(=O)NC2CCCCC2)cc1 [Glibenclamide]
Blood glucose after administration [1, 6]: 10.57 ± 2.17 mmol/L
Blood glucose before administration ([1]; 50 mg/kg intragastric): 13.26 ± 2.26 mmol/L
Serum insulin [3, 6]: 22.57 ± 3.05 MIU/L

Molecule: Catechin
Blood glucose value of rats with hyperglycemia, after administration ([4]; day 14, 1.0 h after 5.0 g/kg sucrose): 14.10 ± 1.50 mmol/L
Blood glucose value of rats with hyperglycemia, before administration ([4]; day 14, fasted 6 h, before sucrose administration): 9.17 ± 0.89 mmol/L
